Data reported in ChEMBL document CHEMBL3991601, “The target landscape of clinical kinase drugs” (Science, 2017).
The source made the active and inactive calls.

How the values were obtained:
[1] = molecular target: T1, Peroxisomal acyl-coenzyme A oxidase 3 (Homo sapiens, UniProt O15254)
T1 sequence (O15254 whole entry): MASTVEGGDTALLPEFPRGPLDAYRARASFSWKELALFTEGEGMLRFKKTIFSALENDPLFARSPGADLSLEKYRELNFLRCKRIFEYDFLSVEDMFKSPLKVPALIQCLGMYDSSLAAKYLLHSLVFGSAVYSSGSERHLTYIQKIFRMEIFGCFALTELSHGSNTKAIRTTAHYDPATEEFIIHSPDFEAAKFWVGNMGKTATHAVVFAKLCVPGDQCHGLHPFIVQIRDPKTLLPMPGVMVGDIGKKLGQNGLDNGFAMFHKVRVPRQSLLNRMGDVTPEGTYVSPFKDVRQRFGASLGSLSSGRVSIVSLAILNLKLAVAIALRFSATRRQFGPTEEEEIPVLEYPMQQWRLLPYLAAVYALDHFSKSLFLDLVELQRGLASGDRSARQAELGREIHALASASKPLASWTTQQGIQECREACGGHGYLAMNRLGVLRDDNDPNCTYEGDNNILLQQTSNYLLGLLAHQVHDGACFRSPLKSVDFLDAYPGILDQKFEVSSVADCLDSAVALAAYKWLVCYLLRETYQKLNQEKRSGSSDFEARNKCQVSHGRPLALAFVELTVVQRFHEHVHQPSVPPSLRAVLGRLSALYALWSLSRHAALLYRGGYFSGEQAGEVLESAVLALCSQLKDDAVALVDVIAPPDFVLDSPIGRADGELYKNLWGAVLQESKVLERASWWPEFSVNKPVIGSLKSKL

[2] = molecular target: T2, Activin receptor type-1 (Homo sapiens, UniProt Q04771)
T2 sequence (Q04771 whole entry): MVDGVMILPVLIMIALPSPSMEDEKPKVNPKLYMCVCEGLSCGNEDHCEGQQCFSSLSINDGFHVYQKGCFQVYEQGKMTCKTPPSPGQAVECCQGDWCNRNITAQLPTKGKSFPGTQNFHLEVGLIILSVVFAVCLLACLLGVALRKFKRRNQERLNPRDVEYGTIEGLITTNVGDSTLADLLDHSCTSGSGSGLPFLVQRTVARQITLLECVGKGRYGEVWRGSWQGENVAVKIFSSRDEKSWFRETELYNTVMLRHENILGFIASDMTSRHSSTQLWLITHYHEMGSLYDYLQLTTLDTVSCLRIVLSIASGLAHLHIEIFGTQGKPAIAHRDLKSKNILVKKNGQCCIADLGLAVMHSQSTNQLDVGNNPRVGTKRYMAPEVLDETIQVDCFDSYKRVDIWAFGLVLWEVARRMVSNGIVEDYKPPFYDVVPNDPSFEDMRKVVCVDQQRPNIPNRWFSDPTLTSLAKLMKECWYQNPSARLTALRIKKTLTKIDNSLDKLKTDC

[3] = molecular target: Activated CDC42 kinase 1 (Homo sapiens, UniProt Q07912)
[4] = molecular target: RAC-alpha serine/threonine-protein kinase (Homo sapiens, UniProt P31749)
[5] = molecular target: Casein kinase I isoform epsilon (Homo sapiens, UniProt P49674)
[6] = molecular target: Dual specificity testis-specific protein kinase 1 (Homo sapiens, UniProt Q15569)
[7] = molecular target: T3, Eukaryotic translation initiation factor 5B (Homo sapiens, UniProt O60841)
T3 sequence (O60841 whole entry): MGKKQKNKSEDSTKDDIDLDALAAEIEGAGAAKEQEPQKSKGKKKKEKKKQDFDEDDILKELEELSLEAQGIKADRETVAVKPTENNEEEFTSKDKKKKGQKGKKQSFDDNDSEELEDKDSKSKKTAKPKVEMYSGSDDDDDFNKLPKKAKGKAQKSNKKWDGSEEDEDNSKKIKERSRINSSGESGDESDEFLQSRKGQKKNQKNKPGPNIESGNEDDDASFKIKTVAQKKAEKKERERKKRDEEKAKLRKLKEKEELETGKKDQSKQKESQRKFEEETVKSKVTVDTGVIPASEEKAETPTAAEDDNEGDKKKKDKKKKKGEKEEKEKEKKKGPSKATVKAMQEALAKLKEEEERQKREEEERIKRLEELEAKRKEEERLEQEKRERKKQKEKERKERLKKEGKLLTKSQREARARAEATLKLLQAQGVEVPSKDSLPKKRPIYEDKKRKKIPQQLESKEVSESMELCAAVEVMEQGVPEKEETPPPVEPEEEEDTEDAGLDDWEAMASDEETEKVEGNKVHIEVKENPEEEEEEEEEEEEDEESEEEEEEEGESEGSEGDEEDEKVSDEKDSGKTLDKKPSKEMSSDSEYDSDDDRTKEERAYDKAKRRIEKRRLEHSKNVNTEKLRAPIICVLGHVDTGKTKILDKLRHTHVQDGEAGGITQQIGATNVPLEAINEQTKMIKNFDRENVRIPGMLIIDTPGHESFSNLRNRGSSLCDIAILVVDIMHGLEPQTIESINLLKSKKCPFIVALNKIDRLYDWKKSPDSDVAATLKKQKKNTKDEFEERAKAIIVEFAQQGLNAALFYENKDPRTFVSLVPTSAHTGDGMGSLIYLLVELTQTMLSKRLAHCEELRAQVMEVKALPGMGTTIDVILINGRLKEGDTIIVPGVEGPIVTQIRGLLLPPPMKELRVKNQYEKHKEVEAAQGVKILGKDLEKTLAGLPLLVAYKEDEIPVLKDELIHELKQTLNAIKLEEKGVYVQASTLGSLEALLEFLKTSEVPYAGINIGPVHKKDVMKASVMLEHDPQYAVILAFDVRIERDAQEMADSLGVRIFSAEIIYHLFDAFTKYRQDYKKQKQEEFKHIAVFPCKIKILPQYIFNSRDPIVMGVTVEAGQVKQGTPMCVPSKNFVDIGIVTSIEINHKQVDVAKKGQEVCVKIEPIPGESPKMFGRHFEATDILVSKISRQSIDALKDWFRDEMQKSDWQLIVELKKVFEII

[8] = molecular target: Tyrosine-protein kinase JAK1 (Homo sapiens, UniProt P23458)
Further: in the data inactive means no Kd found up to 30 µM.

Sequence of Tyrosine-protein kinase JAK1 (P23458 whole entry): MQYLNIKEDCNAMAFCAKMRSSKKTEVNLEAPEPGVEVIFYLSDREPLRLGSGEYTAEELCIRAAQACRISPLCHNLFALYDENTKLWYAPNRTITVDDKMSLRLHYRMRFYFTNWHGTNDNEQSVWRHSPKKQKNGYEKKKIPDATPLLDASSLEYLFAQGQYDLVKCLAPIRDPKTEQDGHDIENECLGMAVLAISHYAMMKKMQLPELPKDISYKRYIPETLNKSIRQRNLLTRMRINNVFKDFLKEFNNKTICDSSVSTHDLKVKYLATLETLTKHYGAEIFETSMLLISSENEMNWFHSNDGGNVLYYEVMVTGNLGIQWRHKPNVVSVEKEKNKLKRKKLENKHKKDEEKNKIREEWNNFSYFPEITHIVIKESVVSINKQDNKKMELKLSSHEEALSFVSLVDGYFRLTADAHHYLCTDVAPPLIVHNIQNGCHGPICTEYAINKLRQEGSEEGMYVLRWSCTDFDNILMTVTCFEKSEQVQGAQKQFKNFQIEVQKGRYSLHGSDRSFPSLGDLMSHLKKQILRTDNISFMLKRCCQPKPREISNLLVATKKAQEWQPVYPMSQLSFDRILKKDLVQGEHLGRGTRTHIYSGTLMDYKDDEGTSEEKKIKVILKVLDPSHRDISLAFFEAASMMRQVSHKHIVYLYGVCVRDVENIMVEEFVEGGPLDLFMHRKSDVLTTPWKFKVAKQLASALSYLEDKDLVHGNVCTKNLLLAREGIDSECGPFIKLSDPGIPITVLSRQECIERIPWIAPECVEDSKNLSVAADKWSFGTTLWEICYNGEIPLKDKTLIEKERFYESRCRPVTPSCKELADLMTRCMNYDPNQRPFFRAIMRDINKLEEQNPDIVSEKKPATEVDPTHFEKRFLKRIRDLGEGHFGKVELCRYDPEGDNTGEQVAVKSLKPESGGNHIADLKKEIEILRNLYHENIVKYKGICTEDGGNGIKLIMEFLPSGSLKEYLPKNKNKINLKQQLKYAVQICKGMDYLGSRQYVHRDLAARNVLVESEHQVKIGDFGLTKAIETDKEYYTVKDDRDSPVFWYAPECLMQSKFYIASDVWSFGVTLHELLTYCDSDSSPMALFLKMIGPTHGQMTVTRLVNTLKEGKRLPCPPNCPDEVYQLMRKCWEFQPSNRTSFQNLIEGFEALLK
Sequence of Dual specificity testis-specific protein kinase 1 (Q15569 whole entry): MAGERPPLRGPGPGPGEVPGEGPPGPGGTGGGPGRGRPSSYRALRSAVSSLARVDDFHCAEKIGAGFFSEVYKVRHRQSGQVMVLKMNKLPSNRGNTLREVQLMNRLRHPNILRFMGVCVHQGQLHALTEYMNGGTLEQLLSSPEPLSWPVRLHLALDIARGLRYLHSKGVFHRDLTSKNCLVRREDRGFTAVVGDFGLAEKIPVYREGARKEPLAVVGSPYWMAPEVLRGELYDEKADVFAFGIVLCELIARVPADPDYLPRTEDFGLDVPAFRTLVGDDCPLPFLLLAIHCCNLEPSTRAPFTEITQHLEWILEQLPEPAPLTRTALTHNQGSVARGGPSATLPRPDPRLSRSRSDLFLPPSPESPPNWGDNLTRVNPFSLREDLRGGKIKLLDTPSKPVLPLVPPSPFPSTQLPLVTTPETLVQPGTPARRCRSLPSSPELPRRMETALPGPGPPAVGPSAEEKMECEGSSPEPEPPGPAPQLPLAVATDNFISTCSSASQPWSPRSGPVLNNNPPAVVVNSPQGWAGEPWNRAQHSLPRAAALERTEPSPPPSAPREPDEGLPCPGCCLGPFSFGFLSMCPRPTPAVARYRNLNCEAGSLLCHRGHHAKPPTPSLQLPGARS
Sequence of Casein kinase I isoform epsilon (P49674 whole entry, canonical isoform): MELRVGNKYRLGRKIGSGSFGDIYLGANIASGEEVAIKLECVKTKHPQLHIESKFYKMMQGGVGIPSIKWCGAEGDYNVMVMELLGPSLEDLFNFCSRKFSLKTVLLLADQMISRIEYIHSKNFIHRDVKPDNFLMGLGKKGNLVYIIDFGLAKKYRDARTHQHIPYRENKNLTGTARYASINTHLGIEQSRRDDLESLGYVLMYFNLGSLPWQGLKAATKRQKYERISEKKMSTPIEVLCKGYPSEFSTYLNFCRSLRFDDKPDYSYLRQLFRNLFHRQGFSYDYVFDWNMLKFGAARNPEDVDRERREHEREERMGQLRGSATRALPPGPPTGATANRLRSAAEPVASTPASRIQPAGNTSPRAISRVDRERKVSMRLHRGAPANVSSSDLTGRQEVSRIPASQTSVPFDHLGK
Sequence of RAC-alpha serine/threonine-protein kinase (P31749 whole entry, canonical isoform): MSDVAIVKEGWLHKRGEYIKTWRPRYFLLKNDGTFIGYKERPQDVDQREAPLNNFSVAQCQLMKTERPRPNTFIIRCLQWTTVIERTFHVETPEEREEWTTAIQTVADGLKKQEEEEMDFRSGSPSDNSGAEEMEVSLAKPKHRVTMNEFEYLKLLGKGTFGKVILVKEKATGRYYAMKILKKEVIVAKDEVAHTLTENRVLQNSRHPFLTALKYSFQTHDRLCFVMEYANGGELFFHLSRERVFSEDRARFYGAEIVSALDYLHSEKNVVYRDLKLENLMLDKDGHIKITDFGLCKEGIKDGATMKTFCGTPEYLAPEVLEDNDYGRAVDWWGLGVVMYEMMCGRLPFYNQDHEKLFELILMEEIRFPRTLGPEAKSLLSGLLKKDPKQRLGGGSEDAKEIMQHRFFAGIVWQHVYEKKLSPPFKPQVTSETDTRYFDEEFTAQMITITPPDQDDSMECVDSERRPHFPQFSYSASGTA
Sequence of Activated CDC42 kinase 1 (Q07912 whole entry): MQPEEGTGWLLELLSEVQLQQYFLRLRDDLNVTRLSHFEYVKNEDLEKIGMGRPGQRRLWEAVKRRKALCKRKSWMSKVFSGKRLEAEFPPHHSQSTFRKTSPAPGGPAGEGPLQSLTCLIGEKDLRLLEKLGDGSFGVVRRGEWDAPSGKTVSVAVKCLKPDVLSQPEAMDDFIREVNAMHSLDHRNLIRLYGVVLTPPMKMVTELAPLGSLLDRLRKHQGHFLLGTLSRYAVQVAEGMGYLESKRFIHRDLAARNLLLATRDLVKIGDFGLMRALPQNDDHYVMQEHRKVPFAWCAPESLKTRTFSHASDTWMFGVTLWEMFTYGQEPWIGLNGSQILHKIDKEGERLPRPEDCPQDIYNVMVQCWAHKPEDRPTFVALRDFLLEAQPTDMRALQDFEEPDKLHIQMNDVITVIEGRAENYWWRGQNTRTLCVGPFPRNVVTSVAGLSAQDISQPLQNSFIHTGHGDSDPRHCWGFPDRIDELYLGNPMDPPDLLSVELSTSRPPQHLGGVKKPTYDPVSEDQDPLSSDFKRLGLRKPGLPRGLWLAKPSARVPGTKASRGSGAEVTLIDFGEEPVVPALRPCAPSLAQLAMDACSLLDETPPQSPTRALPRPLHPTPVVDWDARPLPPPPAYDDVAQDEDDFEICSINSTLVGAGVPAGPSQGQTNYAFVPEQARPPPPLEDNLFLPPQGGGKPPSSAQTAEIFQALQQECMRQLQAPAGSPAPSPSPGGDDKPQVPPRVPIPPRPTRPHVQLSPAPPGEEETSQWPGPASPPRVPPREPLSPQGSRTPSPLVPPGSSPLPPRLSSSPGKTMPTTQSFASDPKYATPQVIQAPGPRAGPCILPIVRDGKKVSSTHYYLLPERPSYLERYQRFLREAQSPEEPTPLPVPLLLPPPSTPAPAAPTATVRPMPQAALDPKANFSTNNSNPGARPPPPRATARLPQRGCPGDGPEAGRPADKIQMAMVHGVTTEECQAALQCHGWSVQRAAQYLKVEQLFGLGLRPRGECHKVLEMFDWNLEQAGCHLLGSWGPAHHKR

| SMILES | Kd [1] | Kd [2] | Kd [3] | Kd [4] | Kd [5] | Kd [6] | Kd [7] | Kd [8] |
| --- | --- | --- | --- | --- | --- | --- | --- | --- |
| CCS(=O)(=O)c1cccc(-c2cc(C(=O)NC3CCN(C)CC3)c(C)c3[nH]c4ncc(C)cc4c23)c1 [TAK-901] | > 30 µM (inactive) | 0.249 µM (active) | 0.281 µM (active) | > 30 µM (inactive) | > 30 µM (inactive) | > 30 µM (inactive) | > 30 µM (inactive) | > 30 µM (inactive) |
| CO[C@H]1C[C@@H]2CC[C@@H](C)[C@@](O)(O2)C(=O)C(=O)N2CCCC[C@H]2C(=O)O[C@H]([C@H](C)C[C@@H]2CC[C@@H](OC(=O)C(C)(CO)CO)[C@H](OC)C2)CC(=O)[C@H](C)/C=C(\C)[C@@H](O)[C@@H](OC)C(=O)[C@H](C)C[C@H](C)/C=C/C=C/C=C/1C [TEMSIROLIMUS] | > 30 µM (inactive) | > 30 µM (inactive) | > 30 µM (inactive) | > 30 µM (inactive) | > 30 µM (inactive) | > 30 µM (inactive) | > 30 µM (inactive) | > 30 µM (inactive) |
| O=C(Cc1ccc(-c2ccc(OCCN3CCOCC3)cc2)cn1)NCc1ccccc1 [TIRBANIBULIN] | > 30 µM (inactive) | > 30 µM (inactive) | > 30 µM (inactive) | > 30 µM (inactive) | > 30 µM (inactive) | > 30 µM (inactive) | > 30 µM (inactive) | > 30 µM (inactive) |
| O=C1NC(=O)[C@@H](c2cn3c4c(cccc24)CCC3)[C@@H]1c1c[nH]c2ccccc12 [TIVANTINIB] | > 30 µM (inactive) | > 30 µM (inactive) | > 30 µM (inactive) | > 30 µM (inactive) | > 30 µM (inactive) | > 30 µM (inactive) | 0.232 µM | > 30 µM (inactive) |
| Cc1cc(Nc2ncnc3ccc(NC4=NC(C)(C)CO4)cc23)ccc1Oc1ccn2ncnc2c1 [TUCATINIB] | > 30 µM (inactive) | > 30 µM (inactive) | > 30 µM (inactive) | > 30 µM (inactive) | > 30 µM (inactive) | > 30 µM (inactive) | > 30 µM (inactive) | > 30 µM (inactive) |
| CC(C)c1cc(CNc2nc(Nc3cc(C4CC4)[nH]n3)cc(N3CCN(C)CC3)n2)on1 [XL-228] | > 30 µM (inactive) | 0.005 µM (active) | 0.076 µM (active) | > 30 µM (inactive) | > 30 µM (inactive) | > 30 µM (inactive) | > 30 µM (inactive) | > 30 µM (inactive) |
| C[C@@H](N)c1ccc(C(=O)Nc2ccnc3[nH]ccc23)cc1 [Y-39983] | > 30 µM (inactive) | > 30 µM (inactive) | > 30 µM (inactive) | > 30 µM (inactive) | > 30 µM (inactive) | > 30 µM (inactive) | > 30 µM (inactive) | > 30 µM (inactive) |
| CN1C/C=C/CCOc2cccc(c2)-c2ccnc(n2)Nc2cccc(c2)C1 [ZOTIRACICLIB] | > 30 µM (inactive) | > 30 µM (inactive) | > 30 µM (inactive) | > 30 µM (inactive) | > 30 µM (inactive) | > 30 µM (inactive) | > 30 µM (inactive) | 2.01 µM (active) |
